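Results reflect a 48-hour exposure of cells in 96-well plates to compound at five concentrations. At the TGI there is no net growth.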
Columns and labels:
Test in all cases: growth of human tumour cells (NCI), 48 h
[1] = tested on: A498 renal
[2] = tested on: A549 NSCLC
[3] = tested on: CCRF-CEM leukemia
[4] = tested on: DMS 114 small cell lung
[5] = tested on: EKVX NSCLC
[6] = tested on: HCT-116 colon
[7] = tested on: HL-60(TB) leukemia
[8] = tested on: HOP-62 NSCLC
[9] = tested on: HOP-92 NSCLC
[10] = tested on: HT29 colon
[11] = tested on: IGROV1 ovarian
[12] = tested on: KM12 colon
[13] = tested on: M14 melanoma
[14] = tested on: M19-MEL melanoma
[15] = tested on: MOLT-4 leukemia
[16] = tested on: NCI-H226 lung
[17] = tested on: NCI-H23 lung
[18] = tested on: NCI-H460 lung
[19] = tested on: NCI-H522 lung
[20] = tested on: OVCAR-5 ovarian
[21] = tested on: OVCAR-8 ovarian
[22] = tested on: RXF 393 renal
[23] = tested on: SF-268 CNS
[24] = tested on: SF-295 CNS
[25] = tested on: SK-MEL-28 melanoma
[26] = tested on: SK-OV-3 ovarian
[27] = tested on: SNB-19 CNS
[28] = tested on: SNB-78 CNS
[29] = tested on: SR leukemia
[30] = tested on: TK-10 renal
[31] = tested on: U251 CNS
[32] = tested on: UACC-257 melanoma
[33] = tested on: UACC-62 melanoma
[34] = tested on: UO-31 renal
[35] = tested on: 786-0 renal
[36] = tested on: CAKI-1 renal
[37] = tested on: COLO 205 colon
[38] = tested on: DLD-1 colon
[39] = tested on: DMS 273 small cell lung
[40] = tested on: HCC-2998 colon
[41] = tested on: K-562 leukemia
[42] = tested on: KM20L2 colon
[43] = tested on: LOX IMVI melanoma
[44] = tested on: OVCAR-3 ovarian
[45] = tested on: OVCAR-4 ovarian
[46] = tested on: RPMI-8226 leukemia
[47] = tested on: RXF-631 renal
[48] = tested on: SF-539 CNS
[49] = tested on: SK-MEL-2 melanoma
[50] = tested on: SK-MEL-5 melanoma
[51] = tested on: SN12C renal
[52] = tested on: SNB-75 CNS
[53] = tested on: SW-620 colon
[54] = tested on: XF 498 CNS
[55] = tested on: ACHN renal
[56] = tested on: HCT-15 colon
[57] = tested on: LXFL 529 NSCLC
[58] = tested on: BT-549 breast
[59] = tested on: DU-145 prostate
[60] = tested on: HS 578T breast
[61] = tested on: MALME-3M melanoma
[62] = tested on: MCF7 breast
[63] = tested on: MDA-MB-231 breast
[64] = tested on: MDA-MB-435
[65] = tested on: MDA-N
[66] = tested on: NCI/ADR-RES ovarian
[67] = tested on: PC-3 prostate
[68] = tested on: T-47D breast

CC1(Cl)CCC2(CC(Br)=CC3OC32C)CC1Br (configuration not stated) gave a TGI [1] of 68.8 µM, a TGI [2] of over 100 µM and a TGI [3] of 53.5 µM. The TGI [4] was 83.2 µM, the TGI [5] was over 100 µM and the TGI [6] was 40.2 µM. The TGI [7] was 38.7 µM, the TGI [8] was 87.4 µM and the TGI [9] was 78.8 µM. The TGI [10] was 57 µM, the TGI [11] was over 100 µM and the TGI [12] was over 100 µM. It also gave a TGI [13] of over 100 µM, a TGI [14] of 81.2 µM and a TGI [15] of 52.4 µM. The TGI [16] was 47.3 µM, the TGI [17] was 49.9 µM and the TGI [18] was 71.1 µM. It also gave a TGI [19] of 55.5 µM, a TGI [20] of over 100 µM and a TGI [21] of 91.7 µM. For the same compound, the TGI [22] was 40.8 µM, the TGI [23] was 50.1 µM and the TGI [24] was 57.6 µM. The TGI [25] was 69.9 µM, the TGI [26] was over 100 µM and the TGI [27] was over 100 µM. For the same compound, the TGI [28] was 86.6 µM, the TGI [29] was 55.8 µM and the TGI [30] was over 100 µM. The TGI [31] was 41.8 µM, the TGI [32] was 42.4 µM and the TGI [33] was 42.7 µM. The TGI [34] was 66.6 µM.
Work on COC(=O)c1c(N)n[nH]c1N yielded a TGI [35] of over 100 µM, a TGI [1] of over 100 µM and a TGI [2] of over 100 µM. For the same compound, the TGI [36] was over 100 µM, the TGI [3] was over 100 µM and the TGI [37] was over 100 µM. The TGI [38] was over 100 µM, the TGI [39] was over 100 µM and the TGI [5] was over 100 µM. The TGI [40] was over 100 µM, the TGI [6] was over 100 µM and the TGI [7] was over 100 µM. It also gave a TGI [8] of over 100 µM, a TGI [9] of over 100 µM and a TGI [11] of over 100 µM. The TGI [41] was over 100 µM, the TGI [12] was over 100 µM and the TGI [42] was over 100 µM. The TGI [43] was over 100 µM, the TGI [13] was over 100 µM and the TGI [14] was over 100 µM. It also gave a TGI [15] of over 100 µM, a TGI [17] of over 100 µM and a TGI [18] of over 100 µM. The TGI [19] was over 100 µM, the TGI [44] was over 100 µM and the TGI [45] was over 100 µM. It also gave a TGI [21] of over 100 µM, a TGI [46] of over 100 µM and a TGI [22] of over 100 µM. For the same compound, the TGI [47] was over 100 µM, the TGI [23] was over 100 µM and the TGI [24] was over 100 µM. It also gave a TGI [48] of over 100 µM, a TGI [49] of over 100 µM and a TGI [25] of over 100 µM. The TGI [50] was over 100 µM, the TGI [26] was over 100 µM and the TGI [51] was over 100 µM. For the same compound, the TGI [27] was over 100 µM, the TGI [52] was over 100 µM and the TGI [28] was over 100 µM. For the same compound, the TGI [29] was over 100 µM, the TGI [53] was over 100 µM and the TGI [30] was over 100 µM. The TGI [31] was over 100 µM, the TGI [32] was over 100 µM and the TGI [33] was over 100 µM. For the same compound, the TGI [34] was over 100 µM and the TGI [54] was over 100 µM.
Cc1[nH]c(=O)nc(N(CCO)/N=C/c2ccccc2Cl)c1C(=O)Nc1cc(Cl)cc(Cl)c1 gave a TGI [35] of 46.2 µM, a TGI [1] of 44.5 µM and a TGI [55] of over 100 µM. The TGI [36] was over 100 µM, the TGI [3] was over 100 µM and the TGI [37] was over 100 µM. It also gave a TGI [38] of over 100 µM, a TGI [4] of over 100 µM and a TGI [39] of over 100 µM. The TGI [40] was over 100 µM, the TGI [6] was 59.4 µM and the TGI [56] was over 100 µM. It also gave a TGI [7] of over 100 µM, a TGI [8] of 59.1 µM and a TGI [9] of 69.9 µM. It also gave a TGI [11] of over 100 µM, a TGI [41] of over 100 µM and a TGI [57] of over 100 µM. The TGI [13] was over 100 µM, the TGI [14] was over 100 µM and the TGI [15] was over 100 µM. It also gave a TGI [16] of 53.3 µM, a TGI [17] of over 100 µM and a TGI [18] of over 100 µM. It also gave a TGI [19] of 87.9 µM, a TGI [45] of 93 µM and a TGI [46] of over 100 µM. For the same compound, the TGI [47] was over 100 µM, the TGI [23] was over 100 µM and the TGI [48] was 60.1 µM. The TGI [49] was over 100 µM, the TGI [25] was over 100 µM and the TGI [26] was 49.8 µM. It also gave a TGI [51] of over 100 µM, a TGI [52] of 63.8 µM and a TGI [29] of over 100 µM. It also gave a TGI [33] of over 100 µM, a TGI [34] of over 100 µM and a TGI [54] of over 100 µM.
O=C(/C=C/c1cc(O)c(O)cc1O)OCCc1ccccc1 showed a TGI [35] of 18.6 µM, a TGI [1] of 37.4 µM and a TGI [2] of over 100 µM. The TGI [55] was 26.8 µM, the TGI [58] was 62.1 µM and the TGI [36] was 78.3 µM. It also gave a TGI [3] of 7.17 µM, a TGI [37] of 25.7 µM and a TGI [59] of over 85.1 µM. For the same compound, the TGI [5] was over 95.6 µM, the TGI [40] was over 100 µM and the TGI [6] was over 58.4 µM. It also gave a TGI [56] of 54.7 µM, a TGI [7] of 3.73 µM and a TGI [8] of 75.4 µM. The TGI [9] was 20.5 µM, the TGI [60] was over 93.9 µM and the TGI [10] was 41.6 µM. The TGI [11] was 40.5 µM, the TGI [41] was 6.89 µM and the TGI [12] was over 100 µM. The TGI [43] was 32 µM, the TGI [13] was 32.7 µM and the TGI [61] was 28.2 µM. For the same compound, the TGI [62] was 20.9 µM, the TGI [63] was 38.3 µM and the TGI [64] was 48.9 µM. It also gave a TGI [65] of 20.2 µM, a TGI [15] of 11.7 µM and a TGI [16] of over 100 µM. It also gave a TGI [17] of 53.1 µM, a TGI [18] of over 100 µM and a TGI [19] of 4.74 µM. It also gave a TGI [66] of 71.2 µM, a TGI [44] of 15.7 µM and a TGI [45] of 31.8 µM. The TGI [20] was over 59.2 µM, the TGI [21] was 22.9 µM and the TGI [67] was 34.2 µM. The TGI [46] was over 46 µM, the TGI [22] was over 31.1 µM and the TGI [23] was 38.6 µM. The TGI [24] was over 82.3 µM, the TGI [48] was 44.5 µM and the TGI [49] was 47.2 µM. For the same compound, the TGI [25] was 39.3 µM, the TGI [50] was 38.4 µM and the TGI [26] was 74.8 µM. It also gave a TGI [51] of 22.1 µM, a TGI [27] of over 100 µM and a TGI [52] of over 100 µM. For the same compound, the TGI [29] was 30.6 µM, the TGI [53] was 21.2 µM and the TGI [68] was 20.1 µM. For the same compound, the TGI [30] was 17.6 µM, the TGI [31] was over 57.9 µM and the TGI [32] was over 64.9 µM. For the same compound, the TGI [33] was 40.5 µM and the TGI [34] was 19.7 µM.
